Reference: patent US20250129078A1, “ERBB2 INHIBITORS” (Cogent Biosciences, Inc., priority 2023, published 2025)

Legend:
[1] = target: ErbB2 V777L (Homo sapiens (Human), UniProt P04626, V777L); assay: ErbB enzyme assay (CisBio HTRF-KinEASE-TK), ErbB2 V777L; assay type: biochemical
Description: In vitro enzyme assays based on CisBio HTRF-KinEASE-TK technology were used to determine compound potencies. […] After another 1 h incubation at ambient temperature, the extent of substrate phosphorylation was determined using a PerkinElmer EnVision multimode plate reader via time-resolved fluorescence dual wavelength detection. The percent of control (POC) was calculated using the ratio of emission at […] to the emission at 620 nm. One hundred POC was determined using DMSO only controls (no test compounds present) and zero POC was determined using pre-quenched controls reactions. A 4-parameter logistic equation was fit to the POC values as a function of the test compound concentration and the IC50 value was determined as the point where the curve crossed 50 POC.

[2] = target: EGFR WT (Homo sapiens (Human), UniProt P00533); assay: ErbB enzyme assay (CisBio HTRF-KinEASE-TK), EGFR WT; assay type: biochemical; details: ATP at Km (25 μM), 1 h incubation
In short: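 Compounds, serially diluted three-fold, were incubated with enzyme for 1 h at ambient temperature. Detection reagents were then added for a further hour, and the 655/620 nm HTRF ratio was normalised to uninhibited and pre-quenched controls. IC50 was fitted with a four-parameter logistic model.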

Sequence of ErbB2 V777L (P04626 23-1255 V777L): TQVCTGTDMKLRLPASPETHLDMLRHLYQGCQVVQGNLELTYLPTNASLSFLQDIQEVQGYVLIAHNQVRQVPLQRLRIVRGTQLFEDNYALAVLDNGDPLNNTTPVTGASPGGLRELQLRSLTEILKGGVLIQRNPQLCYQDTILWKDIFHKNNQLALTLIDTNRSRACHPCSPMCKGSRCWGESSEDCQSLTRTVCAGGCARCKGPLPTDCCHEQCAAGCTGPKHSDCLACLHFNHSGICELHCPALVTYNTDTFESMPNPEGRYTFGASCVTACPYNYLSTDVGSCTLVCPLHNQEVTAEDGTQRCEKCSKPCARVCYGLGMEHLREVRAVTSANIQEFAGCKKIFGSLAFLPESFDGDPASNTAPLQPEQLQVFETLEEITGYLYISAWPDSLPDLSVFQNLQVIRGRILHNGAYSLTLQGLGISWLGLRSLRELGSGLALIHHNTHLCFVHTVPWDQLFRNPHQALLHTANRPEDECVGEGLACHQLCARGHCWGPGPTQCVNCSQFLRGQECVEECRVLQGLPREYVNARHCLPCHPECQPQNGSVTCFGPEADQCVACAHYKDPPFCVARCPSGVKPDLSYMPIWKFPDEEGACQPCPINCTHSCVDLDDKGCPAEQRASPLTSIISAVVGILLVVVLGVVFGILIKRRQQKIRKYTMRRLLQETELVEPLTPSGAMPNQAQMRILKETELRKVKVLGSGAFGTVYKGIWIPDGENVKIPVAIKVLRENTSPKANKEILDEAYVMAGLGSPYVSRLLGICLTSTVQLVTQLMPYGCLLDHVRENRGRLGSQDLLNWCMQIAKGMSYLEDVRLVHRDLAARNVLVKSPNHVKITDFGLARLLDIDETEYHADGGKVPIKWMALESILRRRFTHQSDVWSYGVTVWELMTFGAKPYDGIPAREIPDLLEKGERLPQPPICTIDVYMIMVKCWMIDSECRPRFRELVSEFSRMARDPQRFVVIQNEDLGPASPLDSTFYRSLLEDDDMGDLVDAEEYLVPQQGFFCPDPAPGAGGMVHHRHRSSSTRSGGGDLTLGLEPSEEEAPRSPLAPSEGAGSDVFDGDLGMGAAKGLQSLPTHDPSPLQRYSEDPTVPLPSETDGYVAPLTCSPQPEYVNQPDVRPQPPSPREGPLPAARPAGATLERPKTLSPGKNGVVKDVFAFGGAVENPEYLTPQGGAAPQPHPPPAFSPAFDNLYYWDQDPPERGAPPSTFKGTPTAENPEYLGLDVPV
Sequence of EGFR WT (P00533 25-1210): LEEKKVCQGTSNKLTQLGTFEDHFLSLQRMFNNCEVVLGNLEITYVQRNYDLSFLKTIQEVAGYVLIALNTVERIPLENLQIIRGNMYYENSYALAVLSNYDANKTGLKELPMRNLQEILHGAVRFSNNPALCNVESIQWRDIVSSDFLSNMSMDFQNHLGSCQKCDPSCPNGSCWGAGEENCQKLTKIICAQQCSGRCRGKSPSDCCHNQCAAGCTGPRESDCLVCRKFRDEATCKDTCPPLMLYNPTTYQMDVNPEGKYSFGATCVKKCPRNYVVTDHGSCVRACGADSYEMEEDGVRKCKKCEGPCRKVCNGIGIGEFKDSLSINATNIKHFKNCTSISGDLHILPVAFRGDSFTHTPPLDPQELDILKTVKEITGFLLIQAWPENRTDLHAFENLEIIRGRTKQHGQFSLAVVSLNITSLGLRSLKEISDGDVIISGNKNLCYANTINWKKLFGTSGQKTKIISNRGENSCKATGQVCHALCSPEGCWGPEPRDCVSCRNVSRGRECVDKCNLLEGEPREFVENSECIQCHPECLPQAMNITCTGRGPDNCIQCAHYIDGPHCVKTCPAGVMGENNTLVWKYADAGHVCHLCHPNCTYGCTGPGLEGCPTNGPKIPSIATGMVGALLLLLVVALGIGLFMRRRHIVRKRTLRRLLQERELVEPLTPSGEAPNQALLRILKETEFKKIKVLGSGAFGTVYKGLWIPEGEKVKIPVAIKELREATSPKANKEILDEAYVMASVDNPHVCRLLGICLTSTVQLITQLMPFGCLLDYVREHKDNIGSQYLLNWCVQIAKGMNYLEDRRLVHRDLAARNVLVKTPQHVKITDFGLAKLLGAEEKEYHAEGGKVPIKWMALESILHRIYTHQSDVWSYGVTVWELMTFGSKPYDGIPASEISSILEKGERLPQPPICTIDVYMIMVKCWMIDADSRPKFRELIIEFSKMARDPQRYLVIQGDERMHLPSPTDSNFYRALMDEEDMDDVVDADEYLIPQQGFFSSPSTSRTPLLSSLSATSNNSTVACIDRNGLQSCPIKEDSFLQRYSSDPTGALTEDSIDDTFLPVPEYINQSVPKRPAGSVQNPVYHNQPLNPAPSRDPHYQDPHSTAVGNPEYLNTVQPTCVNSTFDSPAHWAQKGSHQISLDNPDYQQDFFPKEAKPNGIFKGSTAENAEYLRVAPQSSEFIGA

Row | Compound | IC50 [1] [nM] | IC50 [2] [nM]
1 | C=CC(=O)N1CCN(c2ccc3ncnc(Nc4ccc(Oc5ccc6c(c5)nnn6C)c(C)c4)c3c2F)CC1 [Compound 104, 1-(4-(5-fluoro-4-((3-methyl-4-((1-methyl-1H-benzo[d][1,2,3]triazol-5-yl)oxy)phenyl)amino)quinazolin-6-yl)piperazin-1-yl)prop-2-en-1-one] | 100 to 500 | 100 to 500
2 | C=CC(=O)N1CC2CC1CN(c1ncc3ncnc(Nc4ccc(Oc5cc(F)c6c(c5)ncn6C)c(C)c4F)c3n1)C2 (centres unmarked) [Compound 147, 1-(3-(8-((2-fluoro-4-((7-fluoro-1-methyl-1H-benzo[d]imidazol-5-yl)oxy)-3-methylphenyl)amino)pyrimido[5,4-d]pyrimidin-2-y1)-3,6-diazabicyclo[3.2.1]octan-6-yl)prop-2-en-1-one] | 50 to 100 | < 50
3 | C=CC(=O)N1CCN(c2ncc3ncnc(Nc4ccc(Oc5ccc6c(c5)nnn6C)c(C)c4C)c3n2)CC1 [Compound 65, 1-[4-[4-[2,3-dimethyl-4-(1-methylbenzotriazol-5-yl)oxy-anilino]pyrimido[5,4-d]pyrimidin-6-yl]piperazin-1-yl] prop-2-en-1-one] | 100 to 500 | 100 to 500
4 | C=CC(=O)N1C[C@H]2CN(c3ncc4ncnc(Nc5ccc(Oc6ccc7c(c6)nnn7C)c(C)c5)c4n3)C[C@H]21 [Compound 243, cis-1-((1r,5s)-3-(8-((3-methyl-4-((1-methyl-1H-benzo[d][1,2,3]triazol-5-yl)oxy)phenyl)amino)pyrimido[5,4-d]pyrimidin-2-yl)-3,6-diazabicyclo[3.2.0]heptan-6-yl)prop-2-en-1-one] | 100 to 500 | 100 to 500
5 | C=CC(=O)N1CCN(c2ncc3ncnc(Nc4ccc(Oc5ccc6c(c5)nnn6C)c(C)c4)c3n2)C[C@@H]1C1CC1 [Compound 117, (S)-1-(2-cyclopropyl-4-(8-((3-methyl-4-((1-methyl-1H-benzo[d][1,2,3]triazol-5-yl)oxy)phenyl)amino)pyrimido[5,4-d]pyrimidin-2-yl)piperazin-1-yl)prop-2-en-1-one] | 100 to 500 | ≥ 1000
6 | C=CC(=O)N1C[C@@H](C)N(c2ncc3ncnc(Nc4ccc(Oc5ccc6c(c5)nnn6C)c(C)c4)c3n2)C[C@@H]1C [Compound 188, 1-((2S,5R)-2,5-dimethyl-4-(8-((3-methyl-4-((1-methyl-1H-benzo[d][1,2,3]triazol-5-yl)oxy)phenyl)amino)pyrimido[5,4-d]pyrimidin-2-yl)piperazin-1-yl)prop-2-en-1-one] | 500 to 1000 | ≥ 1000
7 | C=CC(=O)N1CCN(c2ncc3ncnc(Nc4ccc(Oc5ccc6c(nnn6C)c5F)c(C)c4)c3n2)CC1 [Compound 191, 1-(4-(8-((4-((4-fluoro-1-methyl-1H-benzo[d][1,2,3]triazol-5-yl)oxy)-3-methylphenyl)amino)pyrimido[5,4-d]pyrimidin-2-yl)piperazin-1-yl)prop-2-en-1-one] | 50 to 100 | 50 to 100
8 | C=CC(=O)N1C2CCC1CN(c1ncc3ncnc(Nc4cc(C)c(Oc5ccc6c(c5)ncn6C(F)F)cc4OC)c3n1)C2 [Compound 40, 1-(3-(8-((4-((1-(difluoromethyl)-1H-benzo[d]imidazol-5-yl)oxy)-2-methoxy-5-methylphenyl)amino)pyrimido[5,4-d]pyrimidin-2-yl)-3,8-diazabicyclo[3.2.1]octan-8-yl)prop-2-en-1-one 2,2,2-trifluoroacetate] | 100 to 500 | 500 to 1000
9 | C=CC(=O)N1CCN(c2ncc3ncnc(Nc4ccc(Oc5cc6nnn(C)c6c(F)c5C)c(C)c4)c3n2)CC1 [Compound 137, 1-(4-(8-((4-((7-fluoro-1,6-dimethyl-1H-benzo[d][1,2,3]triazol-5-yl)oxy)-3-methylphenyl)amino)pyrimido[5,4-d]pyrimidin-2-yl)piperazin-1-yl)prop-2-en-1-one] | 100 to 500 | 100 to 500
10 | C=C(F)C(=O)N1CCN(c2ccc3ncnc(Nc4ccc(Oc5ccc6c(c5)nnn6C)c(C)c4)c3n2)CC1 [Compound 245, 2-fluoro-1-(4-(4-((3-methyl-4-((1-methyl-1H-benzo[d][1,2,3]triazol-5-yl)oxy)phenyl)amino)pyrido[3,2-d]pyrimidin-6-yl)piperazin-1-yl)prop-2-en-1-one] | 100 to 500 | 500 to 1000
11 | C=CC(=O)N1CCN(c2ncc3ncnc(Nc4ccc(Oc5ccc6c(c5)nnn6C)c(C)c4F)c3n2)CC1(C)C [Compound 32, 1-(4-(8-((2-fluoro-3-methyl-4-((1-methyl-1H-benzo[d][1,2,3]triazol-5-yl)oxy)phenyl)amino)pyrimido [5,4-d]pyrimidin-2-yl)-2,2-dimethylpiperazin-1-yl)prop-2-en-1-one] | 100 to 500 | 100 to 500
12 | C=CC(=O)N1CCN(c2ncc3ncnc(Nc4c(OC)cc(Oc5ccc6c(c5)nnn6C)c(C)c4F)c3n2)CC1 [Compound 138, 1-(4-(8-((2-fluoro-6-methoxy-3-methyl-4-((1-methyl-1H-benzo[d][1,2,3]triazol-5-yl)oxy)phenyl)amino)pyrimido[5,4-d]pyrimidin-2-yl)piperazin-1-yl)prop-2-en-1-one] | 100 to 500 | 100 to 500
13 | C=CC(=O)N[C@@H]1CCCN(c2ccc3ncnc(Nc4ccc(Oc5ccc6c(c5)nnn6C)c(C)c4F)c3n2)[C@@H]1C [Compound 268, N-((2R,3R)-1-(4-((2-fluoro-3-methyl-4-((1-methyl-1H-benzo[d][1,2,3]triazol-5-yl)oxy)phenyl)amino)pyrido[3,2-d]pyrimidin-6-yl)-2-methylpiperidin-3-yl)acrylamide] | 50 to 100 | 100 to 500

Results, then the compound that gave them:

Row | IC50 [1] [nM] | IC50 [2] [nM] | Compound
14 | 500 to 1000 | ≥ 1000 | C=C(F)C(=O)N1CCN(c2ccc3ncnc(Nc4ccc(Oc5ccc6c(c5)nnn6C)c(C)c4)c3n2)C[C@H]1COC [Compound 362, (S)-2-fluoro-1-(2-(methoxymethyl)-4-(4-((3-methyl-4-((1-methyl-1H-benzo[d][1,2,3]triazol-5-yl)oxy)phenyl)amino)pyrido[3,2-d]pyrimidin-6-yl)piperazin-1-yl)prop-2-en-1-one]
15 | 100 to 500 | 100 to 500 | C=CC(=O)N1CCN(c2ccc3ncnc(Nc4ccc(Oc5ccc6c(c5)nnn6C(F)F)c(C)c4)c3n2)CC1(C)C [Compound 324, 1-(4-(4-((4-((1-(difluoromethyl)-1H-benzo[d][1,2,3]triazol-5-yl)oxy)-3-methylphenyl)amino)pyrido[3,2-d]pyrimidin-6-yl)-2,2-dimethylpiperazin-1-yl)prop-2-en-1-one]
16 | 50 to 100 | 100 to 500 | C=CC(=O)N1C[C@@H]2CCN(c3ccc4ncnc(Nc5ccc(Oc6ccc7c(c6)nnn7C)c(C)c5)c4n3)[C@@H]2C1 (stereo in doubt) [Compound 314, 1-(1-(4-((3-methyl-4-((1-methyl-1H-benzo[d][1,2,3]triazol-5-yl)oxy)phenyl)amino)pyrido[3,2-d]pyrimidin-6-yl)hexahydropyrrolo[3,4-b]pyrrol-5(1H)-y1)prop-2-en-1-one]
17 | 500 to 1000 | ≥ 1000 | C=CC(=O)N1CCCN(c2ccc3ncnc(Nc4ccc(Oc5ccc6c(c5)nnn6C)c(C)c4)c3n2)C[C@H]1C [Compound 285, (R)-1-(2-methyl-4-(4-((3-methyl-4-((1-methyl-1H-benzo[d][1,2,3]triazol-5-yl)oxy)phenyl)amino)pyrido[3,2-d]pyrimidin-6-yl)-1,4-diazepan-1-yl)prop-2-en-1-one]
18 | 50 to 100 | 100 to 500 | C=CC(=O)N(C)[C@H]1C[C@@H](Oc2ncc3ncnc(Nc4ccc(Oc5cc(F)c6c(c5)ncn6C)c(C)c4)c3n2)C1 [Compound 387, N-((1s,3s)-3-((8-((4-((7-fluoro-1-methyl-1H-benzo[d]imidazol-5-yl)oxy)-3-methylphenyl)amino)pyrimido[5,4-d]pyrimidin-2-yl)oxy)cyclobutyl)-N-methylacrylamide]
19 | 50 to 100 | 100 to 500 | C=CC(=O)N(C)[C@H]1C[C@H](Oc2ncc3ncnc(Nc4ccc(Oc5cc(F)c6c(c5)ncn6C)c(C)c4)c3n2)C1 [Compound 386, N-((1r,3r)-3-((8-((4-((7-fluoro-1-methyl-1H-benzo[d]imidazol-5-yl)oxy)-3-methylphenyl)amino)pyrimido[5,4-d]pyrimidin-2-yl)oxy)cyclobutyl)-N-methylacrylamide]
20 | 100 to 500 | 500 to 1000 | C=CC(=O)NC1(C)CCN(c2ccc3ncnc(Nc4ccc(Oc5ccc6c(c5)nnn6C)c(C)c4F)c3n2)CC1 [Compound 273, N-(1-(4-((2-fluoro-3-methyl-4-((1-methyl-1H-benzo[d][1,2,3]triazol-5-yl)oxy)phenyl)amino)pyrido[3,2-d]pyrimidin-6-yl)-4-methylpiperidin-4-yl)acrylamide]
21 | 50 to 100 | 100 to 500 | C=CC(=O)N1CCN(c2ccc3ncnc(Nc4ccc(Oc5ccc6c(c5)nnn6C)c(C)c4)c3n2)C[C@H]1C(C)C [Compound 297, (R)-1-(2-isopropyl-4-(4-((3-methyl-4-((1-methyl-1H-benzo[d][1,2,3]triazol-5-yl)oxy)phenyl)amino)pyrido[3,2-d]pyrimidin-6-yl)piperazin-1-yl)prop-2-en-1-one]
22 | 100 to 500 | ≥ 1000 | C=CC(=O)N1CCN(c2ccc3ncnc(Nc4ccc(Oc5ccc6c(c5)ncn6C(F)F)c(C)c4F)c3n2)C[C@@H]1C1CC1 [Compound 286, (S)-1-(2-cyclopropyl-4-(4-((4-((1-(difluoromethyl)-1H-benzo[d]imidazol-5-yl)oxy)-2-fluoro-3-methylphenyl)amino)pyrido[3,2-d]pyrimidin-6-yl)piperazin-1-yl)prop-2-en-1-one]
